{"source": "PubChem BioAssay AID1259407", "about": "(Chemical Carcinogenesis Research Information System (CCRIS), 2018)", "system": "CCRIS mutagenicity, Ames/micronucleus/aberration tests", "assay": "CCRIS mutagenicity studies", "key": {"[1]": {"settings": "Test System: AMES SALMONELLA TYPHIMURIUM, Strain/Indicator: TA98, Metabolic Activation: NONE, Method: PREINCUBATION"}, "[2]": {"settings": "Test System: AMES SALMONELLA TYPHIMURIUM, Strain/Indicator: TA98, Metabolic Activation: NONE, Method: STANDARD PLATE"}, "[3]": {"settings": "Test System: AMES SALMONELLA TYPHIMURIUM, Strain/Indicator: TA98, Metabolic Activation: RAT, LIVER, S-9, AROCLOR 1254, Method: PREINCUBATION"}, "[4]": {"settings": "Test System: AMES SALMONELLA TYPHIMURIUM, Strain/Indicator: TA98, Metabolic Activation: RAT, LIVER, S-9, PCB, Method: STANDARD PLATE"}, "[5]": {"settings": "Test System: AMES SALMONELLA TYPHIMURIUM, Strain/Indicator: TA100, Metabolic Activation: NONE, Method: PREINCUBATION"}, "[6]": {"settings": "Test System: AMES SALMONELLA TYPHIMURIUM, Strain/Indicator: TA100, Metabolic Activation: NONE, Method: STANDARD PLATE"}, "[7]": {"settings": "Test System: AMES SALMONELLA TYPHIMURIUM, Strain/Indicator: TA100, Metabolic Activation: RAT, LIVER, S-9, AROCLOR 1254, Method: PREINCUBATION"}, "[8]": {"settings": "Test System: AMES SALMONELLA TYPHIMURIUM, Strain/Indicator: TA100, Metabolic Activation: RAT, LIVER, S-9, PCB, Method: STANDARD PLATE"}, "[9]": {"settings": "Test System: AMES SALMONELLA TYPHIMURIUM, Strain/Indicator: TA1535, Metabolic Activation: NONE, Method: PREINCUBATION"}, "[10]": {"settings": "Test System: AMES SALMONELLA TYPHIMURIUM, Strain/Indicator: TA1535, Metabolic Activation: RAT, LIVER, S-9, AROCLOR 1254, Method: PREINCUBATION"}, "[11]": {"settings": "Test System: AMES SALMONELLA TYPHIMURIUM, Strain/Indicator: TA1538, Metabolic Activation: NONE, Method: PREINCUBATION"}, "[12]": {"settings": "Test System: AMES SALMONELLA TYPHIMURIUM, Strain/Indicator: TA1537, Metabolic Activation: NONE, Method: PREINCUBATION"}}, "note": "Calls of active or inactive are those of the source. How the calls were made is not given here."}
{"compound": "O=C/C(Br)=C/c1ccccc1", "values": [{"measurement": "mutagenic call", "setting": "[1]", "result": "active; positive"}, {"measurement": "mutagenic call", "setting": "Test System: AMES SALMONELLA TYPHIMURIUM, Strain/Indicator: TA98, Metabolic Activation: NONE, Method: PREINCUBATION, LIQUID INCUBATION", "result": "active; positive"}, {"measurement": "mutagenic call", "setting": "[2]", "result": "active; positive"}, {"measurement": "mutagenic call", "setting": "[3]", "result": "active; positive"}, {"measurement": "mutagenic call", "setting": "[4]", "result": "active; positive"}, {"measurement": "mutagenic call", "setting": "[5]", "result": "active; positive"}, {"measurement": "mutagenic call", "setting": "[6]", "result": "active; positive"}, {"measurement": "mutagenic call", "setting": "[7]", "result": "inactive; negative"}, {"measurement": "mutagenic call", "setting": "[8]", "result": "active; positive"}, {"measurement": "mutagenic call", "setting": "[9]", "result": "active; positive"}, {"measurement": "mutagenic call", "setting": "Test System: AMES SALMONELLA TYPHIMURIUM, Strain/Indicator: TA1535, Metabolic Activation: NONE, Method: PREINCUBATION, LIQUID INCUBATION", "result": "active; positive"}, {"measurement": "mutagenic call", "setting": "[10]", "result": "inactive; negative"}, {"measurement": "mutagenic call", "setting": "[11]", "result": "active; positive"}, {"measurement": "mutagenic call", "setting": "Test System: AMES SALMONELLA TYPHIMURIUM, Strain/Indicator: TA1538, Metabolic Activation: NONE, Method: PREINCUBATION, LIQUID INCUBATION", "result": "active; positive"}, {"measurement": "mutagenic call", "setting": "Test System: AMES SALMONELLA TYPHIMURIUM, Strain/Indicator: TA1538, Metabolic Activation: RAT, LIVER, S-9, AROCLOR 1254, Method: PREINCUBATION", "result": "active; positive"}, {"measurement": "mutagenic call", "setting": "Test System: AMES SALMONELLA TYPHIMURIUM, Strain/Indicator: TA2637, Metabolic Activation: NONE, Method: STANDARD PLATE", "result": "active; positive"}, {"measurement": "mutagenic call", "setting": "Test System: AMES SALMONELLA TYPHIMURIUM, Strain/Indicator: TA2637, Metabolic Activation: RAT, LIVER, S-9, PCB, Method: STANDARD PLATE", "result": "active; positive"}]}
{"compound": "NC(N)=NCCCC(N)C(=O)O", "note": "(stereo not given)", "values": [{"measurement": "mutagenic call", "setting": "Test System: AMES SALMONELLA TYPHIMURIUM, Strain/Indicator: TA98, Metabolic Activation: RAT LIVER S-9, CHLOROPHENE, Method: STANDARD PLATE (COMPOUND HEATED AT 250 DEGREES CELSIUS FOR 20 MIN)", "result": "active; positive"}, {"measurement": "mutagenic call", "setting": "Test System: Ames Salmonella typhimurium, Strain/Indicator: TA98, Metabolic Activation: Rat, Liver, S9, Aroclor 1254, assay without cofactors, Method: Preincubation", "result": "inactive; negative"}, {"measurement": "mutagenic call", "setting": "Test System: Ames Salmonella typhimurium, Strain/Indicator: TA98, Metabolic Activation: Rat, Liver, S9, Aroclor 1254, heat inactivated, Method: Preincubation", "result": "inactive; negative"}, {"measurement": "mutagenic call", "setting": "Test System: Ames Salmonella typhimurium, Strain/Indicator: TA98, Metabolic Activation: Rat, Liver, S9, Aroclor 1254, Method: Preincubation", "result": "active; positive. statistically significant at 2 highest doses."}]}
{"compound": "C=C[Si](OCC)(OCC)OCC", "values": [{"measurement": "mutagenic call", "setting": "Test System: AMES SALMONELLA TYPHIMURIUM, Strain/Indicator: TA98, Metabolic Activation: HAMSTER, LIVER, S-9, AROCLOR 1254 (10%), Method: PREINCUBATION", "result": "inactive; negative"}, {"measurement": "mutagenic call", "setting": "[1]", "result": "inactive; negative"}, {"measurement": "mutagenic call", "setting": "Test System: AMES SALMONELLA TYPHIMURIUM, Strain/Indicator: TA98, Metabolic Activation: RAT, LIVER, S-9, AROCLOR 1254 (10%), Method: PREINCUBATION", "result": "inactive; negative"}, {"measurement": "mutagenic call", "setting": "Test System: AMES SALMONELLA TYPHIMURIUM, Strain/Indicator: TA100, Metabolic Activation: HAMSTER, LIVER, S-9, AROCLOR 1254 (10%), Method: PREINCUBATION", "result": "inactive; negative"}, {"measurement": "mutagenic call", "setting": "[5]", "result": "inactive; negative"}, {"measurement": "mutagenic call", "setting": "Test System: AMES SALMONELLA TYPHIMURIUM, Strain/Indicator: TA100, Metabolic Activation: RAT, LIVER, S-9, AROCLOR 1254 (10%), Method: PREINCUBATION", "result": "inactive; negative"}, {"measurement": "mutagenic call", "setting": "Test System: AMES SALMONELLA TYPHIMURIUM, Strain/Indicator: TA1535, Metabolic Activation: HAMSTER, LIVER, S-9, AROCLOR 1254 (10%), Method: PREINCUBATION", "result": "inactive; negative"}, {"measurement": "mutagenic call", "setting": "[9]", "result": "inactive; negative"}, {"measurement": "mutagenic call", "setting": "Test System: AMES SALMONELLA TYPHIMURIUM, Strain/Indicator: TA1535, Metabolic Activation: RAT, LIVER, S-9, AROCLOR 1254 (10%), Method: PREINCUBATION", "result": "inactive; negative"}, {"measurement": "mutagenic call", "setting": "Test System: AMES SALMONELLA TYPHIMURIUM, Strain/Indicator: TA1537, Metabolic Activation: HAMSTER, LIVER, S-9, AROCLOR 1254 (10%), Method: PREINCUBATION", "result": "inactive; negative"}, {"measurement": "mutagenic call", "setting": "[12]", "result": "inactive; negative"}, {"measurement": "mutagenic call", "setting": "Test System: AMES SALMONELLA TYPHIMURIUM, Strain/Indicator: TA1537, Metabolic Activation: RAT, LIVER, S-9, AROCLOR 1254 (10%), Method: PREINCUBATION", "result": "inactive; negative"}, {"measurement": "mutagenic call", "setting": "Test System: AMES SALMONELLA TYPHIMURIUM, Strain/Indicator: TA1538, Metabolic Activation: HAMSTER, LIVER, S-9, AROCLOR 1254 (10%), Method: PREINCUBATION", "result": "inactive; negative"}, {"measurement": "mutagenic call", "setting": "[11]", "result": "inactive; negative"}, {"measurement": "mutagenic call", "setting": "Test System: AMES SALMONELLA TYPHIMURIUM, Strain/Indicator: TA1538, Metabolic Activation: RAT, LIVER, S-9, AROCLOR 1254 (10%), Method: PREINCUBATION", "result": "inactive; negative"}, {"measurement": "mutagenic call", "setting": "Test System: Mouse lymphoma, Strain/Indicator: L5178Y (tk+/tk-), Metabolic Activation: None, Method: Suspension/plate", "result": "inactive; negative"}, {"measurement": "mutagenic call", "setting": "Test System: Mouse lymphoma, Strain/Indicator: L5178Y (tk+/tk-), Metabolic Activation: Rat, Liver, S-9, Aroclor 1254, Method: Suspension/plate", "result": "inactive; negative"}]}
{"compound": "CC1(C)CC(N)CC(C)(C)N1[O]", "values": [{"measurement": "mutagenic call", "setting": "[2]", "result": "active; positive"}, {"measurement": "mutagenic call", "setting": "Test System: AMES SALMONELLA TYPHIMURIUM, Strain/Indicator: TA98, Metabolic Activation: RAT LIVER S-9, PCB, Method: STANDARD PLATE", "result": "inactive; negative"}, {"measurement": "mutagenic call", "setting": "[6]", "result": "active; positive"}, {"measurement": "mutagenic call", "setting": "Test System: AMES SALMONELLA TYPHIMURIUM, Strain/Indicator: TA100, Metabolic Activation: RAT LIVER S-9, PCB, Method: STANDARD PLATE", "result": "inactive; negative"}, {"measurement": "mutagenic call", "setting": "Test System: AMES SALMONELLA TYPHIMURIUM, Strain/Indicator: TA102, Metabolic Activation: NONE, Method: STANDARD PLATE", "result": "inactive; negative"}]}
{"compound": "c1ccc2c(c1)cnc1ccccc12", "values": [{"measurement": "mutagenic call", "setting": "[4]", "result": "active; positive"}, {"measurement": "mutagenic call", "setting": "[8]", "result": "active; positive"}]}
{"compound": "CCCSP(=O)(OCC)Oc1ccc(Br)cc1Cl", "note": "(stereo not given)", "values": [{"measurement": "mutagenic call", "setting": "End Point: In vitro chromosomal aberrations, Test System: Human peripheral lymphocytes, Metabolic Activation: None", "result": "active; positive (structural changes)"}, {"measurement": "mutagenic call", "setting": "End Point: In vivo chromosomal aberrations, Test System: Bone marrow cells, Species: Mouse, Strain/Sex: Swiss/Male, Route: Oral", "result": "active; positive (structural changes and ploidy)"}]}
{"compound": "CC(=O)OC(C)(C)C", "values": [{"measurement": "mutagenic call", "setting": "[1]", "result": "inactive; negative"}, {"measurement": "mutagenic call", "setting": "[3]", "result": "inactive; negative"}, {"measurement": "mutagenic call", "setting": "[5]", "result": "inactive; negative"}, {"measurement": "mutagenic call", "setting": "[7]", "result": "inactive; negative"}, {"measurement": "mutagenic call", "setting": "Test System: AMES SALMONELLA TYPHIMURIUM, Strain/Indicator: TA102, Metabolic Activation: NONE, Method: PREINCUBATION", "result": "inactive; negative"}, {"measurement": "mutagenic call", "setting": "Test System: AMES SALMONELLA TYPHIMURIUM, Strain/Indicator: TA102, Metabolic Activation: RAT, LIVER, S-9, AROCLOR 1254, Method: PREINCUBATION", "result": "inactive; negative"}, {"measurement": "mutagenic call", "setting": "[9]", "result": "inactive; negative"}, {"measurement": "mutagenic call", "setting": "[10]", "result": "inactive; negative"}, {"measurement": "mutagenic call", "setting": "[12]", "result": "inactive; negative"}, {"measurement": "mutagenic call", "setting": "Test System: AMES SALMONELLA TYPHIMURIUM, Strain/Indicator: TA1537, Metabolic Activation: RAT, LIVER, S-9, AROCLOR 1254, Method: PREINCUBATION", "result": "inactive; negative"}, {"measurement": "mutagenic call", "setting": "Test System: E. COLI, Strain/Indicator: WP2UVRA/PKM, Metabolic Activation: NONE, Method: PREINCUBATION", "result": "inactive; negative"}, {"measurement": "mutagenic call", "setting": "Test System: E. COLI, Strain/Indicator: WP2UVRA/PKM, Metabolic Activation: RAT, LIVER, S-9, AROCLOR 1254, Method: PREINCUBATION", "result": "inactive; negative"}]}
{"compound": "O=C1NC(=O)C(Cl)=C1Cl", "values": [{"measurement": "mutagenic call", "setting": "[6]", "result": "active; positive"}]}
